The values below come from US10308605B2, “Proton pump inhibitors” (Takeda Pharmaceutical Company Limited, priority 2004, dated 2019).

Where a name gives a salt, the structure may show the parent alone.

Chain of proton, potassium-adenosine triphosphatase (H^+,K^+-ATPase) (P19156 2-1034): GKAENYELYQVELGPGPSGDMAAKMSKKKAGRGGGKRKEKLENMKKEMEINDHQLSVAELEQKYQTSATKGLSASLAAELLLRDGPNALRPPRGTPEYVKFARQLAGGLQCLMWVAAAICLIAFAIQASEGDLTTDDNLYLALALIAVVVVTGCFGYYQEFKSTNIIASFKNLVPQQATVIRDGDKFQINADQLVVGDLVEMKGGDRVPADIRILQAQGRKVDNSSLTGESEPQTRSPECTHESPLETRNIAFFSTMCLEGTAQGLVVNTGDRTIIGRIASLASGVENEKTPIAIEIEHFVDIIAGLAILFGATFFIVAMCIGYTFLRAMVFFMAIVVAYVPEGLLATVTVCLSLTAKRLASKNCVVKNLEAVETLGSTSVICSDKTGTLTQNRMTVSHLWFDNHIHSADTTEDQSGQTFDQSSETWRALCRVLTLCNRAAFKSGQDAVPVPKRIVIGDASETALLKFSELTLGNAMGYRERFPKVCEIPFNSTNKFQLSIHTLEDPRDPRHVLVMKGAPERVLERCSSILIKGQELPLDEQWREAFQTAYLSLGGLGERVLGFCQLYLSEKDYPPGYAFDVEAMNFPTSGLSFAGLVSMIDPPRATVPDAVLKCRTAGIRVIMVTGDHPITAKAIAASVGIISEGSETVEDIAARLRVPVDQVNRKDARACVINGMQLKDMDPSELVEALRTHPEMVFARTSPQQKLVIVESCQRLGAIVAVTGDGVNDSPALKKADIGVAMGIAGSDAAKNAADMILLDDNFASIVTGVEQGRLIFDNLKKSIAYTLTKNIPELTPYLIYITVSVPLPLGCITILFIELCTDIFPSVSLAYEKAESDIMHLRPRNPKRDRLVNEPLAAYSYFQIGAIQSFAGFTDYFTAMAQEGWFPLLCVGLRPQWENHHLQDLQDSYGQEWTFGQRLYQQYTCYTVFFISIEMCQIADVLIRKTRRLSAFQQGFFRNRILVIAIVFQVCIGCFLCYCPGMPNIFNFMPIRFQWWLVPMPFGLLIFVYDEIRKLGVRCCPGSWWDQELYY
Chain of proton, potassium-adenosine triphosphatase (H^+,K^+-ATPase) (P18434 whole entry partner): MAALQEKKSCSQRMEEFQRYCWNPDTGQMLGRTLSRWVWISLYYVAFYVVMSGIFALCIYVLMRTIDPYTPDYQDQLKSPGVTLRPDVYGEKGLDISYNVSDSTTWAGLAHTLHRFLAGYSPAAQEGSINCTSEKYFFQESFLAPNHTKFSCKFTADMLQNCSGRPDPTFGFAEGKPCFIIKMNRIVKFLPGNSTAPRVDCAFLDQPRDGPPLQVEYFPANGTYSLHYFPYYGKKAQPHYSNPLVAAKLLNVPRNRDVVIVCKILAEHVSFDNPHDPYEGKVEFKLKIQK

One test deals with proton, potassium-adenosine triphosphatase (H^+,K^+-ATPase) (Sus scrofa (Pig), UniProt P19156). Put plainly: Proton potassium-adenosine triphosphatase (H+,K+-ATPase) inhibitory activity test. The format is biochemical. To be noted: swine gastric mucous membrane microsomal fraction, pH 6.5, 37° C.; read-out: H^+/K^+-ATPase inhibitory activity (IC50). On the procedure:
Proton Potassium-adenosine Triphosphatase (H^+,K^+-ATPase) Inhibitory Activity Test
According to the method [Biochem. Biophys. Acta., 728, 31 (1983)] of Wallmark et al., a gastric mucous membrane microsomal fraction was prepared from the stomach of swine. First, the stomach was removed, washed with tap water, immersed in 3 mol/L brine, and the surface of the mucous membrane was wiped with a paper towel. The gastric mucous membrane was detached, chopped, and homogenized in a 0.25 mol/L saccharose solution (pH 6.8) containing 1 mmol/L EDTA and 10 mmol/L tris-hydrochloric acid using polytron (Kinematica). The obtained homogenate was centrifuged at 20,000×g for 30 min and the supernatant was centrifuged at 100,000×g for 90 min. The precipitate was suspended in 0.25 mol/L saccharose solution, superimposed on a 0.25 mol/L saccharose solution containing 7.5% Ficoll, and centrifuged at 100,000×g for 5 hr. The fraction containing the interface between the both layers was recovered, and centrifugally washed with 0.25 mol/L saccharose solution.
The obtained microsomal fraction was used as a proton, potassium-adenosine triphosphatase standard product.
To 40 μL of a 50 mmol/L HEPES-tris buffer (5 mmol/L magnesium chloride, 10 mmol/L potassium chloride, 10 μmol/L valinomycin, pH=6.5) containing 2.5 μg/mL (based on the protein concentration) of the enzyme standard product was added a test compound (5 μL) dissolved in a 10% aqueous dimethyl sulfoxide solution, and the mixture was incubated at 37° C. for 30 min. The enzyme reaction was started by adding 5 μL of a 2 mmol/L adenosine triphosphate tris salt solution (50 mmol/L HEPES-tris buffer (5 mmol/L magnesium chloride, pH 6.5)). The enzyme reaction was carried out at 37° C. for 20 min, and 15 μL of a malachite green solution (0.12% malachite green solution in sulfuric acid (2.5 mol/L), 7.5% ammonium molybdate and 11% Tween 20 were mixed at a ratio of 100:25:2) was added to quench the reaction. After allowing to stand at room temperature for 15 min, the resulting reaction product of inorganic phosphorus with malachite green was colorimetrically determined at a wavelength of 610 nm. In addition, the amount of the inorganic phosphoric acid in the reaction solution free of potassium chloride was measured in the same manner, which was subtracted from the inorganic phosphoric acid amount in the presence of potassium chloride to determine the proton, potassium-adenosine triphosphatase activity. The inhibitory rate (%) was determined from the activity value of the control and the activity values of various concentrations of the test compound, and the 50% inhibitory concentration (IC50) of the proton, potassium-adenosine triphosphatase was determined.
Turning to `CNCc1cc(-c2ccsc2)n(S(=O)(=O)c2ccccc2)c1` [Example 30, N-methyl-1-[1-(phenylsulfonyl)-5-(3-thienyl)-1H-pyrrol-3-yl]methanamine hydrochloride], the IC50 turned out to be 0.0042 µM.

Turning to `CNCc1cc(-c2ccccc2)n(S(=O)(=O)c2ccsc2)c1` [Example 43, N-Methyl-1-[5-phenyl-1-(3-thienylsulfonyl)-1H-pyrrol-3-yl]methanamine hydrochloride], the IC50 was determined as 0.051 µM.

Take `CNCc1cc(-c2ccccc2)n(S(=O)(=O)c2cccc(S(C)(=O)=O)c2)c1` [Example 140, N-Methyl-1-(1-{[3-(methylsulfonyl)phenyl]sulfonyl}-5-phenyl-1H-pyrrol-3-yl)methanamine hydrochloride]: the IC50 amounted to 0.078 µM.

For `CNCc1cc(-c2ccccc2)n(S(=O)(=O)c2cc3ccccc3s2)c1` [Example 152, 1-[1-(1-Benzothien-2-ylsulfonyl)-5-phenyl-1H-pyrrol-3-yl]-N-methylmethanamine hydrochloride], the IC50 came out at 0.033 µM.

Regarding `CNCc1cc(-c2ccccc2F)n(S(=O)(=O)c2cccc(S(C)(=O)=O)c2)c1` [Example 161, 1-[5-(2-Fluorophenyl)-1-{[3-(methylsulfonyl)phenyl]sulfonyl}-1H-pyrrol-3-yl]-N-methylmethanamine hydrochloride], the IC50 was determined as 0.062 µM.

Regarding `CNCc1cc(-c2ccccc2F)n(S(=O)(=O)c2ccccc2F)c1` [Example 165, 1-{5-(2-Fluorophenyl)-1-[(2-fluorophenyl)sulfonyl]-1H-pyrrol-3-yl}-N-methylmethanamine hydrochloride], the IC50 was found to be 0.009 µM.

On to `CNCc1cc(-c2ccccc2)n(S(=O)(=O)c2cccc(C(=O)NC)c2)c1` [Example 204, N-Methyl-3-({4-[(methylamino)methyl]-2-phenyl-1H-pyrrol-1-yl}sulfonyl)benzamide hydrochloride], for which the IC50 turned out to be 0.086 µM.

Turning to `CNCc1cc(-c2ccccc2C)n(S(=O)(=O)c2cccnc2)c1` [Example 220, N-Methyl-1-[5-(2-methylphenyl)-1-(pyridin-3-ylsulfonyl)-1H-pyrrol-3-yl]methanamine dihydrochloride], the IC50 was 0.036 µM.

Still in this test, the particulars now being: swine gastric mucous membrane microsomal fraction, pH 6.5, 37° C.; read-out: IC50.
As for `CNCc1cc(-c2cccc(C)c2)n(S(=O)(=O)c2ccc(C)cc2)c1` [Example 7, N-Methyl-1-{5-(3-methylphenyl)-1-[(4-methylphenyl)sulfonyl]-1H-pyrrol-3-yl}methanamine hydrochloride], the IC50 was 0.091 µM.

As to `CNCc1cc(-c2ccccc2)n(S(=O)(=O)c2ccc(F)cc2C)c1` [Example 11, 1-{1-[(4-Fluoro-2-methylphenyl)sulfonyl]-5-phenyl-1H-pyrrol-3-yl}-N-methylmethanamine hydrochloride], the IC50 amounted to 0.051 µM.

As for `CN(C)Cc1cc(-c2ccccc2)n(S(=O)(=O)c2ccc(C(F)(F)F)cc2)c1` [Example 12, N,N-Dimethyl-1-(5-phenyl-1-{[4-(trifluoromethyl)phenyl]sulfonyl}-1H-pyrrol-3-yl)methanamine hydrochloride], the IC50 turned out to be 0.71 µM.
